From patent US8722849B2, “Polypeptides” (Novo Nordisk A/S, priority 2011, dated 2014)
Starred links: 1 amine or outer side, 2 acyl side, 3 side chain; linkers in the order of their positions; H or OH if unused. Positions of bridges follow the written chain, without caps; N, C: chain ends. Residues, ends and D or L forms follow the SMILES beside them. Groups on a side chain read outwards from the residue. *: point of attachment. C20 diacid = O=C(O)CCCCCCCCCCCCCCCCCCC(=O)*; γGlu = O=C(O)[C@H](CCC(=O)[*:2])N[*:1]

Tests used:
[1] = Assay (III) ThT fibrillation assay for physical stability; format: physicochemical
Summary of the method: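 Freshly prepared formulations, pH-adjusted, with 1 μM ThT; four or eight replicates incubated at 37 °C under 960 rpm orbital shaking. Fluorescence (ex 444/em 485 nm) read every 20 min; […]. Peptide concentration measured by RP-HPLC before and after the run.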

food intake = assay: Assay (I) efficacy testing on appetite (food intake), ad libitum fed rat model; format: in vivo, Sprague Dawley (SD) rats
Text: In the following examples reference is made to the following Assays: • Assay (I)— Experimental protocol for efficacy testing on appetite using an ad libitum fed rat model • ASSAY (II)a—Functional assay—Human calcitonin and amylin receptor assay • ASSAY (II)b—Functional assay—Rat calcitonin and rat amylin receptor assays • ASSAY (III)—ThT fibrillation assays for the assessment of physical stability of protein formulations • ASSAY (IV)—Determination of solubility • ASSAY (V)—Determination of binding to the human amylin receptor • ASSAY (VI)—Determination of the binding to the rat amylin receptor • ASSAY (VII)—Determination of binding to the human calcitonin receptor • ASSAY (VIII)—Determination of binding to the rat calcitonin receptor • ASSAY (IX)—pK—Determination of T % in mini-pig • ASSAY (X)—pK—Determination of T % in rat ASSAY (I)—Experimental Protocol for Efficacy Testing on Appetite Using an Ad Libitum Fed Rat Model
Sprague Dawley (SD) rats from Taconic Europe, Denmark are used for the experiments. The rats have a body weight 200-250 g at the start of experiment. The rats arrive at least 10-14 days before start of experiment to allow acclimatization to experimental settings. During this period the animals are handled at least 2 times. After arrival rats are housed individually for one week in a reversed light/dark phase (meaning that lights are off during daytime and on during nighttime) […]. Since rats are normally active and eat their major part of their daily food intake during the dark period, rats are dosed in the morning right before lights are turned off. This set-up results in the lowest data variation and highest test sensitivity. The experiment is conducted in the rats' home cages and rats have free access to food and water throughout the acclimatization period and the experiment period. Each dose of derivative is tested in a group of 5-8 rats. A vehicle group of 6-8 rats is included in each set of testing. Rats are dosed once according to body weight with a 0.01-3 mg/kg solution administered intraperitoneally (ip), orally (po) or subcutaneously (sc). The time of dosing is recorded for each group. After dosing, the rats are returned to their home cages, where they then have access to food and water. The food consumption is recorded individually continuously by on-line registration or manually every hour for 7 hours, and then after 24 h and sometimes 48 h. At the end of the experimental session, the animals are euthanised.
The individual data are recorded in Microsoft excel sheets. Outliers are excluded after applying the Grubbs statistical evaluation test for outliers, and the result is presented graphically using the GraphPad Prism program.

SMILES	ThT pH 4.0 lag time ([1]; ThT fibrillation assay) [h]	ThT pH 4.0 lag time (h) ([1]; ThT fibrillation assay)	Food intake reduction 0-24 h 3 nmol/kg (%) (food intake; 0-24 h)	Food intake reduction 0-24 h 30 nmol/kg (%) (food intake; 0-24 h, 30 nmol/kg)	Food intake reduction 24-48 h 3 nmol/kg (%) (food intake; 24-48 h)	Food intake reduction 24-48 h 30 nmol/kg (%) (food intake; 24-48 h, 30 nmol/kg)	ThT pH 4.0 lag time ([1]; Table 8) [h]	ThT pH 4.0 lag time ([1]; Table 9) [h]
CC[C@H](C)[C@H](NC(=O)[C@@H]1CCCN1C(=O)CNC(=O)[C@H](Cc1ccccc1)NC(=O)[C@H](CC(N)=O)NC(=O)[C@H](CC(N)=O)NC(=O)[C@H](CO)NC(=O)[C@H](CO)NC(=O)[C@H](Cc1c[nH]cn1)NC(=O)[C@H](Cc1c[nH]cn1)NC(=O)[C@H](CC(C)C)NC(=O)[C@H](Cc1ccccc1)NC(=O)[C@H](CCC(=O)O)NC(=O)[C@H](C)NC(=O)[C@H](CC(C)C)NC(=O)[C@H](CCCNC(=N)N)NC(=O)[C@H](CCC(N)=O)NC(=O)[C@@H](NC(=O)[C@H](C)NC(=O)[C@@H]1CSSC[C@H](NC(=O)[C@H](CCCCN)NC(=O)CC[C@H](NC(=O)CCCCCCCCCCCCCCCCCCC(=O)O)C(=O)O)C(=O)N[C@@H](CC(N)=O)C(=O)N[C@@H]([C@@H](C)O)C(=O)N[C@@H](C)C(=O)N[C@@H]([C@@H](C)O)C(=O)N1)[C@@H](C)O)C(=O)N[C@@H](CC(C)C)C(=O)N1CCC[C@H]1C(=O)N1CCC[C@H]1C(=O)N[C@H](C(=O)N[C@@H](CC(N)=O)C(=O)N[C@H](C(=O)NCC(=O)N[C@@H](CO)C(=O)N[C@@H](Cc1c[nH]cn1)C(=O)N[C@H](C(=O)N[C@@H](Cc1ccc(O)cc1)C(N)=O)[C@@H](C)O)C(C)C)[C@@H](C)O [Example 55, N-alpha-[(S)-4-Carboxy-4-(19-carboxynonadecanoylamino)butyryl]-[Glu14,His17,His35]-pramlintide] ({C20 diacid-γGlu}-KCNTATCATQRLAEFLHHSSNNFGPILPPTNVGSHTY-NH2; disulfide 2-7 (inferred))	37	37	58	88	40	90		
CC[C@H](C)[C@H](NC(=O)[C@@H]1CCCN1C(=O)CNC(=O)[C@H](Cc1ccccc1)NC(=O)[C@H](CC(N)=O)NC(=O)[C@H](CC(N)=O)NC(=O)[C@H](CO)NC(=O)[C@H](CO)NC(=O)[C@H](Cc1c[nH]cn1)NC(=O)[C@H](Cc1c[nH]cn1)NC(=O)[C@H](CC(C)C)NC(=O)[C@H](Cc1ccccc1)NC(=O)[C@H](CCC(=O)O)NC(=O)[C@H](C)NC(=O)[C@H](CC(C)C)NC(=O)[C@H](CCCNC(=N)N)NC(=O)[C@H](CCC(N)=O)NC(=O)[C@@H](NC(=O)[C@H](C)NC(=O)[C@@H]1CSSC[C@H](NC(=O)[C@H](Cc2c[nH]cn2)NC(=O)[C@H](Cc2c[nH]cn2)NC(=O)CC[C@H](NC(=O)CCCCCCCCCCCCCCCCCCC(=O)O)C(=O)O)C(=O)N[C@@H](CC(N)=O)C(=O)N[C@@H]([C@@H](C)O)C(=O)N[C@@H](C)C(=O)N[C@@H]([C@@H](C)O)C(=O)N1)[C@@H](C)O)C(=O)N[C@@H](CC(C)C)C(=O)N1CCC[C@H]1C(=O)N1CCC[C@H]1C(=O)N[C@H](C(=O)N[C@@H](CC(N)=O)C(=O)N[C@H](C(=O)NCC(=O)N[C@@H](CO)C(=O)N[C@@H](CC(N)=O)C(=O)N[C@H](C(=O)N[C@@H](Cc1ccc(O)cc1)C(N)=O)[C@@H](C)O)C(C)C)[C@@H](C)O [Example 17, N-alpha-[(S)-4-Carboxy-4-(19-carboxynonadecanoylamino)butyryl]-His-[His1,Glu14,His17]-pramlintide] ({C20 diacid-γGlu}-HHCNTATCATQRLAEFLHHSSNNFGPILPPTNVGSNTY-NH2; disulfide 3-8 (inferred); C-terminus assumed)	30.3	30.3	40		22			
CC[C@H](C)[C@H](NC(=O)[C@@H]1CCCN1C(=O)CNC(=O)[C@H](Cc1ccccc1)NC(=O)[C@H](CC(N)=O)NC(=O)[C@H](CC(N)=O)NC(=O)[C@H](CO)NC(=O)[C@H](CO)NC(=O)[C@H](Cc1c[nH]cn1)NC(=O)[C@H](Cc1c[nH]cn1)NC(=O)[C@H](CC(C)C)NC(=O)[C@H](Cc1ccccc1)NC(=O)[C@H](CCC(=O)O)NC(=O)[C@H](C)NC(=O)[C@H](CC(C)C)NC(=O)[C@H](CCCNC(=N)N)NC(=O)[C@H](CCC(N)=O)NC(=O)[C@@H](NC(=O)[C@H](C)NC(=O)[C@@H]1CSSC[C@H](NC(=O)[C@@H](N)CCCCNC(=O)CC[C@H](NC(=O)CCCCCCCCCCCCCCCCCCC(=O)O)C(=O)O)C(=O)N[C@@H](CC(N)=O)C(=O)N[C@@H]([C@@H](C)O)C(=O)N[C@@H](C)C(=O)N[C@@H]([C@@H](C)O)C(=O)N1)[C@@H](C)O)C(=O)N[C@@H](CC(C)C)C(=O)N1CCC[C@H]1C(=O)N1CCC[C@H]1C(=O)N[C@H](C(=O)N[C@@H](CC(N)=O)C(=O)N[C@H](C(=O)NCC(=O)N[C@@H](CO)C(=O)N[C@@H](Cc1c[nH]cn1)C(=O)N[C@H](C(=O)N[C@@H](Cc1ccc(O)cc1)C(N)=O)[C@@H](C)O)C(C)C)[C@@H](C)O [Example 87, N-epsilon1-[(S)-4-Carboxy-4-(19-carboxynonadecanoylamino)butyryl]-[Glu14,His17,His35]-pramlintide] (H-K([γGlu-C20 diacid])CNTATCATQRLAEFLHHSSNNFGPILPPTNVGSHTY-NH2; disulfide 2-7 (inferred))	25	25	66		47		25	
CC[C@H](C)[C@H](NC(=O)[C@@H]1CCCN1C(=O)CNC(=O)[C@H](Cc1ccccc1)NC(=O)[C@H](CO)NC(=O)[C@H](CO)NC(=O)[C@H](CO)NC(=O)[C@H](CO)NC(=O)[C@H](CCCNC(=N)N)NC(=O)[C@H](Cc1c[nH]cn1)NC(=O)[C@H](CC(C)C)NC(=O)[C@H](Cc1ccccc1)NC(=O)[C@H](CCC(=O)O)NC(=O)[C@H](C)NC(=O)[C@H](CC(C)C)NC(=O)[C@H](CCCNC(=N)N)NC(=O)[C@H](CCC(N)=O)NC(=O)[C@@H](NC(=O)[C@H](C)NC(=O)[C@@H]1CSSC[C@H](NC(=O)[C@H](Cc2c[nH]cn2)NC(=O)CC[C@H](NC(=O)CCCCCCCCCCCCCCCCCCC(=O)O)C(=O)O)C(=O)N[C@@H](CC(N)=O)C(=O)N[C@@H]([C@@H](C)O)C(=O)N[C@@H](C)C(=O)N[C@@H]([C@@H](C)O)C(=O)N1)[C@@H](C)O)C(=O)N[C@@H](CC(C)C)C(=O)N1CCC[C@H]1C(=O)N1CCC[C@H]1C(=O)N[C@H](C(=O)N[C@@H](CC(=O)O)C(=O)N[C@H](C(=O)NCC(=O)N[C@@H](CO)C(=O)N[C@@H](CC(=O)O)C(=O)N[C@H](C(=O)N[C@@H](Cc1ccc(O)cc1)C(N)=O)[C@@H](C)O)C(C)C)[C@@H](C)O [Example 9, N-alpha-[(S)-4-Carboxy-4-(19-carboxynonadecanoylamino)butyryl]-[His1,Glu14,His17,Arg18,Ser21,Ser22,Asp31,Asp35]-pramlintide] ({C20 diacid-γGlu}-HCNTATCATQRLAEFLHRSSSSFGPILPPTDVGSDTY-NH2; disulfide 2-7 (inferred); C-terminus assumed)	>45	>45	39		32		>45	>45
